The source of these data is US10227336B2, “Pyrazole orexin receptor antagonists” (MERCK SHARP & DOHME CORP., priority 2014, dated 2019).

Assay [1] addresses hOX1R (Homo sapiens, UniProt O43613). In words: FLIPR Ca2+ Flux Assay, hOX1R. The format is cell-based. The following applies: CHO cells expressing orexin-1 receptor (head: hOX1R; method: rat); agonist 70 pM Ala-6,12 orexin-A. Here is the method: The utility of the compounds in accordance with the present invention as orexin receptor OX1R and/or OX2R antagonists may be readily determined without undue experimentation by methodology well known in the art, including the “FLIPR Ca^2+ Flux Assay” (Okumura et al., Biochem. Biophys. Res. Comm. 280:976-981, 2001). In a typical experiment the OX1 and OX2 receptor antagonistic activity of the compounds of the present invention was determined in accordance with the following experimental method. […] The cells are seeded at 20,000 cells/well into Becton-Dickinson black 384-well clear bottom sterile plates coated with poly-D-lysine. All reagents were from GIBCO-Invitrogen Corp. The seeded plates are incubated overnight at 37° C. and 5% CO2. Ala-6,12 human orexin-A as the agonist is prepared as a 1 mM stock solution in 1% bovine serum albumin (BSA) and diluted in assay buffer (HBSS containing 20 mM HEPES, 0.1% BSA and 2.5 mM probenecid, pH7.4) for use in the assay at a final concentration of 70 pM. Test compounds are prepared as 10 mM stock solution in DMSO, then diluted in 384-well plates, first in DMSO, then assay buffer. On the day of the assay, cells are washed 3 times with 100 μl assay buffer and then incubated for 60 min (37° C., 5% CO2) in 60 μl assay buffer containing 1 μM Fluo-4AM ester, 0.02% pluronic acid, and 1% BSA. The dye loading solution is then aspirated and cells are washed 3 times with 100 μl assay buffer. 30 μl of that same buffer is left in each well. Within the Fluorescent Imaging Plate Reader (FLIPR, Molecular Devices), test compounds are added to the plate in a volume of 25 μl, incubated for 5 min and finally 25 μl of agonist is added. Fluorescence is measured for each well at 1 second intervals for 5 minutes and the height of each fluorescence peak is compared to the height of the fluorescence peak induced by 70 pM Ala-6,12 orexin-A with buffer in place of antagonist. For each antagonist, IC50 value (the concentration of compound needed to inhibit 50% of the agonist response) is determined. Alternatively, compound potency can be assessed by a radioligand binding assay (described in Bergman et. al. Bioorg. Med. Chem. Lett. 2008, 18, 1425-1430) in which the inhibition constant (Ki) is determined in membranes prepared from CHO cells expressing either the OX1 or OX2 receptor. The intrinsic orexin receptor antagonist activity of a compound which may be used in the present invention may be determined by these assays.
For orientation: Calcium assays in cells follow changes in intracellular calcium, usually with a dye or a luminescent sensor.

Assay [2] concerns the target human orexin-2 receptor (Homo sapiens (Human), UniProt O43614). Briefly: FLIPR Ca2+ Flux Assay, hOX2R. The following applies: CHO cells expressing the human orexin-2 receptor; agonist 70 pM Ala-6,12 orexin-A. The format is cell-based. Here is the method:
The utility of the compounds in accordance with the present invention as orexin receptor OX1R and/or OX2R antagonists may be readily determined without undue experimentation by methodology well known in the art, including the “FLIPR Ca^2+ Flux Assay” (Okumura et al., Biochem. Biophys. Res. Comm. 280:976-981, 2001). In a typical experiment the OX1 and OX2 receptor antagonistic activity of the compounds of the present invention was determined in accordance with the following experimental method. For intracellular calcium measurements, Chinese hamster ovary (CHO) cells expressing the rat orexin-1 receptor or the human orexin-2 receptor, are grown in Iscove's modified DMEM containing 2 mM L-glutamine, […], 1% hypoxanthine-thymidine supplement, 100 U/ml penicillin, 100 μg/ml streptomycin and 10% heat-inactivated fetal calf serum (FCS). The cells are seeded at 20,000 cells/well into Becton-Dickinson black 384-well clear bottom sterile plates coated with poly-D-lysine. All reagents were from GIBCO-Invitrogen Corp. The seeded plates are incubated overnight at 37° C. and 5% CO2. Ala-6,12 human orexin-A as the agonist is prepared as a 1 mM stock solution in 1% bovine serum albumin (BSA) and diluted in assay buffer (HBSS containing 20 mM HEPES, 0.1% BSA and 2.5 mM probenecid, pH7.4) for use in the assay at a final concentration of 70 pM. Test compounds are prepared as 10 mM stock solution in DMSO, then diluted in 384-well plates, first in DMSO, then assay buffer. On the day of the assay, cells are washed 3 times with 100 μl assay buffer and then incubated for 60 min (37° C., 5% CO2) in 60 μl assay buffer containing 1 μM Fluo-4AM ester, 0.02% pluronic acid, and 1% BSA. The dye loading solution is then aspirated and cells are washed 3 times with 100 μl assay buffer. 30 μl of that same buffer is left in each well. Within the Fluorescent Imaging Plate Reader (FLIPR, Molecular Devices), test compounds are added to the plate in a volume of 25 μl, incubated for 5 min and finally 25 μl of agonist is added. Fluorescence is measured for each well at 1 second intervals for 5 minutes and the height of each fluorescence peak is compared to the height of the fluorescence peak induced by 70 pM Ala-6,12 orexin-A with buffer in place of antagonist. For each antagonist, IC50 value (the concentration of compound needed to inhibit 50% of the agonist response) is determined. Alternatively, compound potency can be assessed by a radioligand binding assay (described in Bergman et. al. Bioorg. Med. Chem. Lett. 2008, 18, 1425-1430) in which the inhibition constant (Ki) is determined in membranes prepared from CHO cells expressing either the OX1 or OX2 receptor. The intrinsic orexin receptor antagonist activity of a compound which may be used in the present invention may be determined by these assays.

Bounds are passed on as bounds.

human orexin-2 receptor, sequence (O43614 whole entry): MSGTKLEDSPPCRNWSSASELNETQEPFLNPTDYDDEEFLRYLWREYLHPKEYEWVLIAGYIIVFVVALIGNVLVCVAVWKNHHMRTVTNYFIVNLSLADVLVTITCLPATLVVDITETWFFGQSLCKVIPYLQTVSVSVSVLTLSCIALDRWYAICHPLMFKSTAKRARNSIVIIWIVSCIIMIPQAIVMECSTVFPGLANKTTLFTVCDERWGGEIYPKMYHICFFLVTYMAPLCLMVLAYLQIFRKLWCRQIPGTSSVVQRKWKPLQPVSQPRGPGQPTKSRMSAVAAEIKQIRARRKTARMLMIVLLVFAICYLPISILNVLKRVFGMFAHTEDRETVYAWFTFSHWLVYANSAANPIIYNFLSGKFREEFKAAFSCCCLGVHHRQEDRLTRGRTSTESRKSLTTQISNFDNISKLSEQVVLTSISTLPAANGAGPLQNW

Usually IC50 stands for the concentration that inhibits the measured activity by half. As to `CC(C)n1cc([C@@H]2CC[C@@H](C)N(C(=O)c3ccc(F)cc3-n3nccn3)C2)cn1` [Example 15, (2R,5S)-1-{[4-fluoro-2-(2H-1,2,3-triazol-2-yl)phenyl]carbonyl}-2-methyl-5-[1-(1-methylethyl)-1H-pyrazol-4-yl]piperidine], the IC50 in assay [1] was more than 10000 nM; in assay [2], 113 nM.

For the molecule `COC(=O)C(C)(C)n1cc([C@@H]2CC[C@@H](C)N(C(=O)c3ccccc3-n3nccn3)C2)cn1` [Example 7, methyl 2-methyl-2-{4-[(3S,6R)-6-methyl-1-{[2-(2H-1,2,3-triazol-2-yl)phenyl]carbonyl}piperidin-3-yl]-1H-pyrazol-1-yl}propanoate], the results for the 50% inhibitory concentration (IC50) in assay [1] and in assay [2] were 3050 nM and 46 nM, respectively.

For `C[C@@H]1CC[C@@H](c2cnn(CC(F)(F)F)c2)CN1C(=O)c1ccccc1-n1nccn1` [Example 5, (2R,5S)-2-methyl-1-{[2-(2H-1,2,3-triazol-2-yl)phenyl]carbonyl}-5-[1-(2,2,2-trifluoroethyl)-1H-pyrazol-4-yl]piperidine], the IC50 in assay [1] was more than 10000 nM; in assay [2], 75 nM.

As to `C[C@@H]1CC[C@@H](c2cnn(CC(F)F)c2)CN1C(=O)c1ccccc1-n1nccn1` [Example 6, (2R,5S)-5-[1-(2,2-difluoroethyl)-1H-pyrazol-4-yl]-2-methyl-1-{[2-(2H-1,2,3-triazol-2-yl)phenyl]carbonyl}piperidine], the concentration for half-maximal inhibition (IC50) in assay [1] is more than 10000 nM; in assay [2], 183 nM.

As to `CC(C)n1cc([C@@H]2CC[C@@H](C)N(C(=O)c3ccccc3-n3nccn3)C2)cn1` [Example 2, (2R,5S)-2-methyl-5-[1-(1-methylethyl)-1H-pyrazol-4-yl]-1-1{[2-(2H-1,2,3-triazol-2-yl)phenyl]carbonyl}piperidine], the concentration for half-maximal inhibition (IC50) in assay [1] came out at 3410 nM; in assay [2], 34 nM.

Take `CCn1cc([C@@H]2CC[C@@H](C)N(C(=O)c3ccccc3-n3nccn3)C2)cn1` [Example 1, (2R,5S)-5-(1-Ethyl-1H-pyrazol-4-yl)-2-methyl-1-{[2-(2H-1,2,3-triazol-2-yl)phenyl]carbonyl}piperidine]: the values for the IC50 in assay [1] and in assay [2] were more than 10000 nM and 139 nM, respectively.

Take `CC(C)n1cc([C@@H]2CC[C@@H](C)N(C(=O)c3cscc3-n3nccn3)C2)cn1` [Example 14, (2R,5S)-2-methyl-5-[1-(1-methylethyl)-1H-pyrazol-4-yl]-1-{[4-(2H-1,2,3-triazol-2-yl)thiophen-3-yl]carbonyl}piperidine]: the IC50 is more than 10000 nM in assay [1] and 430 nM in assay [2].

For `CC(C)n1cc([C@@H]2CC[C@@H](C)N(C(=O)c3ccccc3-n3ncnn3)C2)cn1` [Example 16, (2R,5S)-2-methyl-5-[1-(1-methylethyl)-1H-pyrazol-4-yl]-1-{[2-(2H-tetrazol-2-yl)phenyl]carbonyl}piperidine], the IC50 in assay [1] was more than 10000 nM; in assay [2] it was 259 nM.

For the molecule `C[C@@H]1CC[C@@H](c2cnn(C3CCOC3)c2)CN1C(=O)c1ccccc1-n1nccn1` (stereo partly drawn) [Example 9, (2R,5S)-2-methyl-5-[1-(tetrahydrofuran-3-yl)-1H-pyrazol-4-yl]-1-{[2-(2H-1,2,3-triazol-2-yl)phenyl]carbonyl}piperidine], the figures for the IC50 in assay [1] and in assay [2] were more than 10000 nM and 600 nM, respectively.

Consider `C[C@@H]1CC[C@@H](c2cnn(CC3CC3)c2)CN1C(=O)c1ccccc1-n1nccn1` [Example 3, (2R,5S)-5-[1-(cyclopropylmethyl)-1H-pyrazol-4-yl]-2-methyl-1-{[2-(2H-1,2,3-triazol-2-yl)phenyl]carbonyl}piperidine], for which the IC50 in assay [1] stood at 7710 nM; in assay [2], 124 nM.

With `C[C@@H]1CC[C@@H](c2cnn(C3CC3)c2)CN1C(=O)c1ccccc1-n1nccn1` [Example 11, (2R,5S)-5-(1-Cyclopropyl-1H-pyrazol-4-yl)-2-methyl-1-{[2-(2H-1,2,3-triazol-2-yl)phenyl]carbonyl}piperidine], the IC50 in assay [1] was more than 10000 nM; in assay [2], 56 nM.

For `C[C@@H]1CC[C@@H](c2cnn(CC(C)(C)O)c2)CN1C(=O)c1ccccc1-n1nccn1` [Example 10, 2-Methyl-1-{4-[(3S,6R)-6-methyl-1-{[2-(2H-1,2,3-triazol-2-yl)phenyl]carbonyl}piperidin-3-yl]-1H-pyrazol-1-yl}propan-2-ol], the figures for the IC50 in assay [1] and in assay [2] were more than 10000 nM and 197 nM, respectively.

For `C[C@@H]1CC[C@@H](c2cnn(C3CCC3)c2)CN1C(=O)c1ccccc1-n1nccn1` [Example 8, (2R,5S)-5-(1-cyclobutyl-1H-pyrazol-4-yl)-2-methyl-1-{[2-(2H-1,2,3-triazol-2-yl)phenyl]carbonyl}piperidine], the figures for the IC50 in assay [1] and in assay [2] were 3440 nM and 49 nM, respectively.

As to `CC(C)n1cc([C@@H]2CC[C@@H](C)N(C(=O)c3ccsc3-c3ncccn3)C2)cn1` [Example 13, 2[3-({(2R,5S)-2-methy1-5-[1-(1-methylethyl)-1H-pyrazol-4-yl]piperidin-1-yl}carbonyl)thiophen-2-yl]pyrimidine], the IC50 in assay [1] is more than 10000 nM; in assay [2], 155 nM.

Regarding `C[C@@H]1CC[C@@H](c2cnn(C3CCCC3)c2)CN1C(=O)c1ccccc1-n1nccn1` [Example 4, (2R,5S)-5-(1-cyclopentyl-1H-pyrazol-4-yl)-2-methyl-1-{[2-(2H-1,2,3-triazol-2-yl)phenyl]carbonyl}piperidine], the IC50 was 1430 nM in assay [1] and 39 nM in assay [2].

In the case of `CC(C)n1cc([C@@H]2CC[C@@H](C)N(C(=O)c3ccsc3-n3nccn3)C2)cn1` [Example 12, (2R,5S)-2-Methyl-5-[1-(1-methylethyl)-1H-pyrazol-4-yl]-1-{[2-(2H-1,2,3-triazol-2-yl)thiophen-3-yl]carbonyl}piperidine], the IC50 was more than 10000 nM in assay [1] and 301 nM in assay [2].
